# Assay results as given in patent US11986482B2, “Method of promoting antitumor or anti-cancer immunity” (City University of Hong Kong, priority 2021, dated 2024).
# “Also recorded” adds a separate entry of the source.
# Columns and labels:
# PD-L1 [1] = test: Western blot of PD-L1 in total cell lysates and exosomes of HeLa cells; type: cell-based; conditions: for 6J1-induced exosomal PD-L1 secretion: 1 μM, 24 h
# Protocol: PD-L1 has been previously shown to be secreted outside the cell through exosomes. HeLa cells are plated on coverslips in 24-well plates and stained with the anti-PD-L1 antibody on ice for 1 h. At the indicated times after being incubated at a warm medium at 37° C., cells are fixed and stained with antibodies against CD63 or Rab27a. […] Cells are treated with or without ionomycin (1 μM) for 48 h. The supernatant is collected and subjected to western blot analysis. […] Since the amphisome, which is formed by the fusion of the autophagosome with the MVB/late endosome, has been implicated in extracellular vesicles secretion, and PD-L1 is found to be associated with LC3B during PD-L1 trafficking (FIG. 2a), inventors examine whether the autophagosome formation is involved in exosomal PD-L1 secretion. Thus, inventors knock out the expression of Rab27A, LC3B or ATG4B in HeLa cells and collect their supernatant respectively for western blot analysis.
# Furthermore, HeLa cells are treated with or without Bafilomycin A1 (10 nM), or Torin 1 (100 nM) for 48 h. The cell lysates and supernatant are collected for western blot analysis. […] In contrast, Torin1, an autophagy activator, has little effect on total and exosomal PD-L1 levels (FIG. 2g). […] On the other hand, blockage on the fusion between lysosomes and late endosomes or autophagosomes may induce PD-L1 secretion via exosomes.
# (§1) It has previously been shown that interfering with endosomal trafficking promotes exosome secretion. Moreover, PD-L1 has been reported to be enriched in exosomes and secreted outside the cell. Thus, inventors speculate that 6J1 may induce the secretion of the PD-L1 trapped in the endosomal compartments via exosomes. To determine whether 6J1 may induce the secretion of PD-L1 via exosomes, HeLa cells are treated with or without 6J1 (1 μM) for 24 h. The supernatant is collected. Inventors purify the exosomes from the supernatant of HeLa cells by sequential centrifugation. The concentration of extracellular vesicle is determined using a Nanosight nanoparticle analyzer. And HeLa cells are treated with or without 6J1 (1 μM) for 48 h. The cell and supernatant are collected for Western Blot analysis. […] Moreover, the activity of Rab27a in HeLa cells treated with or without 6J1 (1 μM) is examined with a GST-SHD pulldown assay.
# (§2) Moreover, ATG5- or LC3-knockout HeLa cells are treated with or without 6J1 (1 μM) for 24 h. The supernatant is collected, and the concentration of the extracellular vesicle is determined using a Nanosight nanoparticle analyzer. The exosomes are also collected and subjected to western blot analysis of the EVs marker and PD-L1 in FIG. 7a. The live cells are also labeled with an anti-PD-L1 antibody in FIG. 7b and subjected to flow cytometry analysis in FIG. 7c. […] In addition, inventors assess whether other autophagy-related genes, e.g., ATG4B, ATG7, Beclin1, and Vps34 are involved in 6J1-mediated exosomal PD-L1 secretion. ATG4B-, ATG7-, Beclin1-, or VPS34-knockout HeLa cells are treated with or without 6J1 (1 μM) for 24 h. The supernatant is collected, and the concentration of extracellular vesicle is determined using a Nanosight nanoparticle analyzer. The exosomes are also collected and subjected to western blot analysis of the EVs marker and PD-L1 in FIG. 7d. The live cells are also labeled with an anti-PD-L1 antibody and subjected to flow cytometry analysis in FIG. 7e.
# PD-L1 [2] = test: PD-L1 colocalization imaging in PD-L1-GFP HeLa cells; type: cell-based; conditions: 1 μM, 24 h
# Protocol: Next, inventors assess if 6J1 can compromise PD-L1 trafficking. PDL1-GFP stable expressing HeLa cells are treated with or without 6J1 (1 μM) for 24 h. Cells are fixed and stained with Rab5 or EEA1. Their quantifications of the colocalization are shown in FIGS. 4d and 4e, respectively. […] Inventors thus further quantify cell membrane PD-L1 levels in live cells treated with or without 6J1 by flow cytometry or confocal imaging.
# as §1
# HeLa cells are treated with or without 6J1. After 6 h, cells are collected for western blot analysis of LC3 and p62. […] In addition, ATG5-knockout HeLa cells are transfected with PD-L1-GFP and LC3-RFP, and then treated with or without 6J1 (1 μM) for 24 h. Cells are fixed and imaged. […] Furthermore, LC3B-knockout HeLa cells are transfected with PD-L1-GFP, and then treated with or without 6J1 (1 μM) for 24 h. Cells are fixed and stained with antibodies against Rab5 (FIG. 6d) or Rab27a (FIG. 6e).
# HeLa cells = test: Extracellular vesicle concentration, Nanosight nanoparticle analyzer, HeLa cells; type: cell-based; conditions: 1 μM, 24 h
# Protocol: as §1, §2
# [3] = tested on: 4T1 mouse mammary carcinoma; test: Orthotopic 4T1 mammary carcinoma model in syngeneic Balb/c mice; type: in vivo; conditions: oral gavage, daily
# Protocol: To determine whether 6J1 can promote anti-cancer immunity in vivo, 4T1 cells are orthotopically transplanted into syngeneic Balb/c mice. The mice are randomly divided into three groups (n=7 per group) and treated with either buffer or 6J1 (15 or 30 mg/kg, daily) via oral gavage. Tumor volume and body weight of mice are measured at the indicated time point. After the tumor reaches the indicated size, the mice are treated with 6J1 (via oral gavage) at different doses (15 mg/kg or 30 mg/kg) daily for 4 weeks. […] The effective dosages of 6J1 in vivo can range from about 0.1 mg/kg to about 300 mg/kg; or from about 1 mg/kg to about 200 mg/kg; or from about 3 mg/kg to about 100 mg/kg, taking into account, for example, activity and toxicity
# B16-F10 cells = test: B16-F10 melanoma model in C57BL/6J mice; type: in vivo, mouse; conditions: 30 mg/kg, daily, oral gavage, 4 weeks
# Protocol: Inventors also examine the anti-cancer effect of 6J1 in a melanoma xenograft mouse model, by the subcutaneous injection of B16-F10 cells in syngeneic C57BL mice. B16-F10 cells are subcutaneously injected into the flank of female C57BL/6J mice. The mice are randomly divided (n=6 per group). They are treated with either buffer or 6J1 (30 mg/kg, daily, oral gavage) after tumors reach around 5 mm for 4 weeks. After 4 weeks, the primary tumors are collected for analysis. […] In addition, a flow cytometry-based quantification of the levels of plasma membrane PD-L1 in the primary tumor is performed in FIG. 15e. […] In B16-F10 tumors, fold change of CD3+CD8+ T-cell populations, and percentage of intracellular IFN-γ in the isolated tumor-infiltrating lymphocytes (TILs) are determined by flow cytometry analysis in FIGS. 15f and 15g.
# [4] = ATG4B-, ATG7-, Beclin1- or VPS34-knockout HeLa cells
# [5] = ATG5- or LC3B-knockout HeLa cells
# [6] = isolated tumor-infiltrating lymphocytes
smiles,measurement,setting,value
OCCOCCN(c1ccccc1)c1nc(N/N=C/c2cccc(I)c2)nc(N2CCOCC2)n1 [Compound 6J1],6J1-induced exosomal PD-L1 secretion,PD-L1 [1]; [4],fails to abolish
same,6J1-induced exosomal PD-L1 secretion,PD-L1 [1]; [5],Neither ATG5 nor LC3B knockout impairs
same,exosomal PD-L1 level,"PD-L1 [1]; HeLa cells, 48 h, ionomycin 1 μM, Bafilomycin A1 10 nM, Torin 1 100 nM, 6J1 1 μM",increases PD-L1 level in exosomes
same,6J1-induced PD-L1 puncta,PD-L1 [2]; ATG5-knockout HeLa cells,no effect on 6J1-induced PD-L1 puncta
same,PD-L1/LC3B colocalization in 6J1-treated cells,PD-L1 [2]; ATG5-knockout HeLa cells,abolishes this colocalization between PD-L1 and LC3B
same,6J1-induced PD-L1 puncta and PD-L1 colocalization with RAB5 or RAB27A,PD-L1 [2]; LC3B-knockout HeLa cells,LC3B knockout does not affect
same,accumulation of PD-L1 in vesicles colocalized with early endosome markers EEA1 and RAB5,PD-L1 [2]; PD-L1-GFP HeLa cells,clearly induces the accumulation of PD-L1 within vesicle-like structures in the cytoplasm
same,colocalization between PD-L1 and RAB11 (recycling endosome marker),PD-L1 [2]; PD-L1-GFP HeLa cells,markedly decreases the colocalization between PD-L1 and RAB11
same,"colocalization of PD-L1 with exosomal markers TSG101, CD63, Rab27A",PD-L1 [2]; PD-L1-GFP HeLa cells,significantly induces the colocalization of PD-L1 with the exosomal markers
same,colocalization of PD-L1-containing vesicles with LC3B puncta,PD-L1 [2]; control HeLa cells with PD-L1-GFP and LC3-RFP,strongly colocalized with LC3B puncta
same,6J1-induced EVs secretion,HeLa cells; [4],fails to abolish
same,6J1-induced EVs secretion,HeLa cells; [5],Neither ATG5 nor LC3B knockout impairs
same,exosome secretion (extracellular vesicle concentration),HeLa cells; HeLa cells,dramatically induces exosome secretion
same,cell surface expression of PD-L1 in the primary tumors,[3]; 30 mg/kg,down-regulated
same,tumor growth,"[3]; 30 mg/kg, 4 weeks",significantly decreases the tumor growth
same,body weight of mice,"[3]; 15 or 30 mg/kg, 4 weeks",does not change the body weight of mice
same,expression of IFN-γ in CD8+ T cells,[3]; [6],little effect
same,tumor-infiltrating CD8+ T cell populations,[3]; [6],significantly increases the tumor infiltrating CD8+ T cell populations; also recorded: significantly increases the tumor-infiltrating CD8+ T cell populations
same,animal's body weight,B16-F10 cells,without affecting the animal's body weight
same,expression of IFN-γ in tumor-infiltrating lymphocytes,B16-F10 cells,only subtly increases the expression of IFN-γ
same,growth of B16-F10 tumors,B16-F10 cells,markedly inhibits the growth of B16-F10 tumors
same,levels of PD-L1 at the cell surface of the primary tumors,B16-F10 cells,significantly decreases the levels of PD-L1 at the cell surface of the primary tumors
same,percentage of tumor-infiltrating CD8+ T cell populations,B16-F10 cells,markedly increases the percentage of tumor-infiltrating CD8+ T cell populations
